The values that follow are results of earlier work, collected in US5346895A, “Chromans and thiochromans with heteroarylethynyl substituents at the 7-position having retinoid-like biological activity” (Allergan, Inc., priority 1993, dated 1994).

This data set relates to ornithine decarboxylase (ODC), TPA induced ODC activity. Conditions: result in words, retinoic acid, background knowledge.

In the case of `CC1=C(/C=C/C(C)=C/C=C/C(C)=C/C(=O)O)C(C)(C)CCC1` [Retinoic acid], the “inhibition of induction of ODC activity by TPA” value was “inhibits this induction of ODC activity by TPA”.
